Measured values taken from PMC8611673 (JACS Au, 2021).

Tested on: HeLa 654 cells
Test: EGFP assay with chemical endocytosis inhibitors
Type: cell-based, human
Details: higher concentrations of the inhibitor

SMILES | toxicity of the inhibitor to HeLa 654 cells
C=C1[C@@H](C)[C@H]2[C@H](Cc3ccccc3)NC(=O)[C@]23[C@H](OC(C)=O)/C=C/[C@@](C)(O)C(=O)[C@@H](C)C/C=C/[C@H]3[C@@H]1O [cytochalasin D] | appeared to be toxic
COC[C@H]1OC(=O)c2coc3c2[C@@]1(C)C1=C(C3=O)[C@@H]2CCC(=O)[C@@]2(C)C[C@H]1OC(C)=O [wortmannin] | appeared to be toxic
